Results on eight compounds are retold here after ChEMBL document CHEMBL1201862, “PubChem BioAssay data set” (2004).

Where “and” joins values, the source holds several entries; their conditions need not be identical. Identical values can stand only once.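 Each compound was tested at five concentrations against cells in 96-well plates for 48 hours. GI50 = concentration required for 50% inhibition of growth.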 Calls of active or inactive are those of the source. Cut-off read from the data, not from the text of the source: active = GI50 up to about 1.1 µM and inactive = higher.

Holding throughout (test): growth of human tumour cells (NCI), 48 h
Assay [1] relates to NCI-H226.
Assay [2] deals with IGROV-1.
Assay [3] has as its system HOP-62.
The subject of assay [4] is HCT-116.
Assay [5] relates to UACC-257.
For assay [6], the system named is OVCAR-3.
The subject of assay [7] is SN12C.
Assay [8] concerns SK-OV-3.
Assay [9] concerns HOP-92.
Assay [10] relates to SW-620.
For assay [11], the system named is OVCAR-5.
For assay [12], the system named is LOX IMVI.
In assay [13] the test system is HT-29.
Assay [14] concerns Malme-3M.
The subject of assay [15] is EKVX.
Assay [16] relates to UACC-62.
The subject of assay [17] is DMS-114.
Assay [18] concerns RPMI-8226.
For assay [19], the system named is SF-539.
Assay [20] concerns A549.

For `Cc1ccc(NC(=O)CC/C(CC(=O)C(C)(C)C)=N/NC(=O)c2cc3ccccc3cc2O)cc1C`, the GI50 in [1] is 37.2 µM (inactive); in [2], 32.8 µM (inactive); in [3] it was 36.8 µM (inactive); in assay [4] it was 40.3 µM (inactive); in assay [5], 38.1 µM (inactive); in [6], 32.7 µM (inactive). Further, the GI50 was 33.6 µM (inactive) in assay [7]; 50 µM (inactive) in assay [8]; 47.6 µM (inactive) in assay [9]; 48 µM (inactive) in assay [10]; 32.1 µM (inactive) in [11]; 20.3 µM (inactive) in assay [12]. The GI50 was 41.7 µM (inactive) in assay [13]; 35.2 µM (inactive) in [14]; 36.5 µM (inactive) in [15]; 24.5 µM (inactive) in assay [16]; 31.6 µM (inactive) in assay [17].

As to `CCOC(=O)c1ncoc1[C@H]1COC(C)(C)O1`, the GI50 in [1], in assay [18], in [2], in assay [3], in [4] and in assay [5] was > 100 µM (inactive) in each case. Also, the GI50 in assay [6], in assay [7], in [8], in assay [10], in assay [11] and in [19] was > 100 µM (inactive) throughout. For the same compound, the GI50 in assay [12], in assay [20], in [13], in assay [14], in [15] and in [16] was > 100 µM (inactive) throughout. Besides, the GI50 in assay [17] is > 100 µM (inactive).

Regarding `CCCCCCCCCCSCC(CO)NC(=O)/C=C/c1c(C)[nH]c(=O)[nH]c1=O` (stereo not given), the GI50 in assay [18] was 23.1 µM (inactive) and 33.5 µM (inactive); in [2], 2.43 µM (inactive) and 2.48 µM (inactive); in [3], 2.03 µM (inactive) and 3.24 µM (inactive); in assay [4], 1.26 µM (inactive) and 1.29 µM (inactive); in assay [6] it was 916 nM (active) and 798 nM (active); in assay [7], 1.37 µM (inactive) and 1.09 µM (active). Further, the GI50 in [9] was 1.54 µM (inactive) and 820 nM (active); in assay [10] it was 1.61 µM (inactive) and 1.51 µM (inactive); in assay [11], > 21.2 µM (inactive) and > 27.5 µM (inactive); in assay [19], 1.46 µM (inactive) and 1.41 µM (inactive); in assay [12] it was 1.29 µM (inactive) and 1.42 µM (inactive); in [20], 32.8 µM (inactive) and > 50 µM (inactive). Also, the GI50 was 4.02 µM (inactive) and 7.43 µM (inactive) in assay [13]; 813 nM (active) and 703 nM (active) in assay [14]; 3.93 µM (inactive) and 2.01 µM (inactive) in [15]; 1.03 µM (active) and 1.17 µM (inactive) in [16]; 548 nM (active) and 637 nM (active) in [17].

On to `COc1ccc(C2=N/C(=C\c3ccccc3)C(=O)O2)cc1`, for which the GI50 in assay [1] is 28.5 µM (inactive); in assay [18], 36.6 µM (inactive); in assay [2], > 100 µM (inactive); in [3], 38.7 µM (inactive); in assay [5], > 100 µM (inactive); in assay [6] it was 53.7 µM (inactive). In addition, the GI50 in [8] is > 100 µM (inactive); in [9] it was > 100 µM (inactive); in assay [10], > 100 µM (inactive); in assay [11] it was > 100 µM (inactive); in assay [19] it was 44.3 µM (inactive); in assay [20], > 100 µM (inactive). In addition, the GI50 in assay [13] and in assay [15] was > 100 µM (inactive) each time.

Turning to `COc1cccc(N2C(=O)CSC2c2c[nH]c3ccccc23)c1` (stereo not given), the GI50 in [2], in assay [3], in [4], in assay [5], in [6] and in assay [7] was > 100 µM (inactive) in each case. Besides, the GI50 in [8] was > 100 µM (inactive); in [9] it was 66.1 µM (inactive); in assay [10] it was > 100 µM (inactive); in [11], > 100 µM (inactive); in assay [12], > 100 µM (inactive); in assay [13], > 100 µM (inactive). Further, the GI50 in assay [15] and in assay [16] was > 100 µM (inactive) throughout.

As for `COc1cccc2c1C(=O)c1c(O)c3c(c(O)c1C2=O)CC(O)(C(C)=O)CC3O` (stereo not given), the GI50 in assay [1] is 5.56 µM (inactive); in [18] it was 2.18 µM (inactive); in [2], 3.44 µM (inactive); in assay [3], 2.14 µM (inactive); in assay [4], 2.41 µM (inactive); in [5], 10.6 µM (inactive). For the same compound, the GI50 is 7.8 µM (inactive) in assay [6]; 3.8 µM (inactive) in assay [7]; 11.5 µM (inactive) in [8]; 7.11 µM (inactive) in [9]; 2.33 µM (inactive) in [10]; 10.5 µM (inactive) in assay [11]. The GI50 in [19] is 4.74 µM (inactive); in [12] it was 1.63 µM (inactive); in assay [20] it was 6.55 µM (inactive); in assay [13], 6.04 µM (inactive); in assay [14], 4.56 µM (inactive); in assay [15], 4.9 µM (inactive). In addition, the GI50 is 5.58 µM (inactive) in assay [16] and 6.97 µM (inactive) in assay [17].

Take `CN(C)C(=O)/C=C/c1c[nH]c(=O)[nH]c1=O`: the GI50 in assay [1] is > 500 µM (inactive); in assay [18], > 316 µM (inactive); in [2], > 500 µM (inactive); in [3], > 500 µM (inactive); in assay [4], > 500 µM (inactive); in assay [5] it was > 500 µM (inactive). The GI50 is > 500 µM (inactive) in assay [6]; > 500 µM (inactive) in assay [7]; > 254 µM (inactive) in [8]; > 500 µM (inactive) in [9]; > 500 µM (inactive) in [10]; > 500 µM (inactive) in [11]. Also, the GI50 in assay [19] is > 500 µM (inactive); in assay [12], > 500 µM (inactive); in assay [20] it was > 500 µM (inactive); in assay [13], > 500 µM (inactive); in assay [14], > 500 µM (inactive); in [15], > 281 µM (inactive). Further, the GI50 in assay [16] and in assay [17] was > 500 µM (inactive) each time.

In the case of `O=C1c2cc3c(cc2[C@@H]2C(O)[C@H]4O[C@H]4C4CCN1C42)OCO3` (stereo not given in full), the GI50 in [1], in [18], in assay [2], in [3], in [4] and in assay [6] was > 37.5 µM (inactive) each time. Also, the GI50 in assay [7], in assay [8], in assay [9], in [10], in assay [11] and in [19] was > 37.5 µM (inactive) throughout. The GI50 in assay [12], in assay [20], in [13], in assay [14], in assay [15] and in assay [16] was > 37.5 µM (inactive) each time. Also, in [17], the GI50 was > 37.5 µM (inactive).
